In US9388250B2, “Method to treat psoriasis and other hyperproliferative skin disorders” (CORNELL UNIVERSITY, priority 2009, dated 2016):

How the values were obtained:
keratinocytes in culture = test: IL-22-induced rise in cAMP within keratinocytes in culture; format: cell-based; details: IL-22 stimulated
Text: To address the role of sAC in keratinocyte proliferation we studied IL-22-induced psoriasis pathogenesis as a model system. IL-22 induced a rise in cAMP within keratinocytes in culture. This cAMP rise was inhibited by KH7 (a specific inhibitor of sAC).

C57B1/6 mouse ears [1] = test: IL-22-induced acanthosis in mouse ears, topical application of KH7; format: in vivo; details: ear painted with 100 micromolar KH7 in DMSO one hour after IL-22 injection, every other day for two weeks, three mice, ANOVA P<0.05 IL-22 vs IL-22+KH7, not different from control
Method: FIG. 11. Topical application of KH7 inhibits IL-22-induced acanthosis As before C57B1/6 mouse ears were injected with normal saline (control) or 500 ng of IL-22 in 20 microliters of normal saline (IL-22). After incubation for one hour the left ear was painted with 5 microliters of DMSO and the right ear was painted with 100 micromolar KH7 in DMSO (IL-22+KH7). This was repeated every other day for two weeks. The ears were then removed and the total area of acanthosis of each ear was calculated and represented as a % of acanthosis relative to control ears. […]
IL-22 protein was purchased from Preprotech and reconstituted in sterile water as per the manufacturer's instructions. […] Epidermal height was measured from the bottom of the basal cell layer to the top of the granular cell layer using a microscope and a micrometer. Three to four measurements were taken along the ear and multiple sections were measured for each condition. In addition, the total number of acanthotic ear sections were recorded as an indication of the distribution of acanthosis.
Topical application of KH7 inhibits IL-22-induced acanthosis. […] The ears were then removed and the total area of acanthosis of each ear was calculated and represented as a % of acanthosis relative to control ears. […]

C57B1/6 mouse ears [2] = test: IL-22-induced acanthosis in mouse ears, subcutaneous co-injection of IL-22+KH7; format: in vivo
Method: FIG. 1 Tissue sections stained with H/E of C57B1/6 mouse ears following injection with saline, IL-22 and IL-22+KH7 (a sAc inhibitor). Slides were visualized on a standard pathology microscope. Bar graph in lower right corner represents the average±SEM thickness of epidermis in each of three conditions listed in the previous sentence. a student t test was performed with p value listed.
IL-22 protein was purchased from Preprotech and reconstituted in sterile water as per the manufacturer's instructions. Concentrated IL-22 was diluted to a working concentration of 500 ng/20 μL in sterile saline alone, or with KH7 at 100 μM. These solutions were prepared fresh each day they were used. C57B1/6 mice greater than 2 months in age, kept under a normal light/dark cycle, and fed normal chow were injected subcutaneously in their left ear with 20 μL of IL-22 alone and in their right ear with 20 μL of IL-22+KH7 every other day for two weeks, or were injected subcutaneously in their left and right ear with 20 μL of IL-22 and then treated topically (54) following each injection with vehicle on the left ear and KH7 on the right ear every other day for two weeks. As a control C57B1/6 mice were injected with 20 μL of IL-22 in their left ear and 20 μL of sterile saline alone in their right ear every other day for two weeks. After two weeks the ears were removed, formalin fixed, paraffin embedded, sectioned, and stained with simple hematoxylin and eosin. Epidermal height was measured from the bottom of the basal cell layer to the top of the granular cell layer using a microscope and a micrometer. Three to four measurements were taken along the ear and multiple sections were measured for each condition. In addition, the total number of acanthotic ear sections were recorded as an indication of the distribution of acanthosis.

CC(Sc1nc2ccccc2[nH]1)C(=O)N/N=C/c1cc(Br)ccc1O (centres unmarked) [KH7]
IL-22-induced cAMP rise within keratinocytes (keratinocytes in culture): inhibited | IL-22-induced acanthosis (total area of acanthosis, % relative to control ears) (C57B1/6 mouse ears [1]): inhibits | IL-22-induced acanthosis (thickness of epidermis) (C57B1/6 mouse ears [2]; IL-22 500 ng/20 μL with KH7 at 100 μM, every other day for two weeks): completely blocked | IL-22-induced parakeratosis (C57B1/6 mouse ears [2]; IL-22 with KH7, every other day for two weeks): completely blocked | IL-22-induced recruitment of immunocytes (ie T cells) (C57B1/6 mouse ears [2]; injection of IL-22+KH7, H/E sections): completely blocked
